Reference: ChEMBL document CHEMBL6109070, “Fatty acid conjugated BimBH3 analogues with d‑amino acid substitution as PTPN1 inhibitors with enhanced activity, biostability and orally available potency for the treatment of diabetes” (Bioorg Med Chem, 2025)
pIC50, pKd: −log10 of the molar value.

Key:
[1] = target: T1, Tyrosine-protein phosphatase non-receptor type 1 (Homo sapiens) (UniProt P18031); assay: Binding affinity to PTPN1 (unknown origin) assessed as association rate constant (Kon) by Bio-Layer Interferometric analysis
T1 sequence (whole entry): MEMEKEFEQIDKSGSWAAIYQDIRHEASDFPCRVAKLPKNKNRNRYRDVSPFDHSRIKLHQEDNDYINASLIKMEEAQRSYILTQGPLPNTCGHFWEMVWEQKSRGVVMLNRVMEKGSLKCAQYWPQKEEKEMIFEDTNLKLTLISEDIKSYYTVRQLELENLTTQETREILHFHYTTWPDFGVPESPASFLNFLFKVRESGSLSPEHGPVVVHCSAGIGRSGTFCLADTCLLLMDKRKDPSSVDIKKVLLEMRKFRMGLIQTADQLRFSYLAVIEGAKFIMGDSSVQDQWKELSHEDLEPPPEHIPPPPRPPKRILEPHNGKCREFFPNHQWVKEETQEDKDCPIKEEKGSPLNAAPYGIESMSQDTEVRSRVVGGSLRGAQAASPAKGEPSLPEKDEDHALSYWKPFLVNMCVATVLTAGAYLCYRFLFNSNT

[2] = target: T2, Tyrosine-protein phosphatase non-receptor type 1 (Homo sapiens, UniProt P18031); assay: Binding affinity to PTPN1 (unknown origin) assessed as equilibrium dissociation constant (Kd) by Bio-Layer Interferometric analysis
T2 sequence (P18031 whole entry): T1 sequence (whole entry)

[3] = tested on: pepsin; assay: Proteolytic stability of compound assessed as pepsin (unknown origin)-mediated drug degradation at 40 mM by measuring half life measured after 24 hrs by RP-HPLC analysis; assay type: ADME; conditions: human
[4] = tested on: chymotrypsin; assay: Proteolytic stability of compound assessed as chymotrypsin (unknown origin)-mediated drug degradation at 0.6 mM by measuring half life measured after 24 hrs by RP-HPLC analysis; assay type: ADME; conditions: human
[5] = target: T1, Tyrosine-protein phosphatase non-receptor type 1 (Homo sapiens); assay: Binding affinity to PTPN1 (unknown origin) assessed as observed […] rate constant (Kobs) by Bio-Layer Interferometric analysis
[6] = tested on: proteinase K; assay: Proteolytic stability of compound assessed as proteinase K (unknown origin)-mediated drug degradation at 0.4 mM by measuring half life measured after 24 hrs by RP-HPLC analysis; assay type: ADME; conditions: human
[7] = Stability in rat plasma assessed as half life; assay type: ADME, cell-free
[8] = target: T1, Tyrosine-protein phosphatase non-receptor type 1 (Homo sapiens); assay: Binding affinity to PTPN1 (unknown origin) assessed as dissociation rate constant (Koff) by Bio-Layer Interferometric analysis
[9] = target: DPP-4 (dipeptidyl peptidase 4) (Homo sapiens, UniProt P27487); assay: Stability of compound assessed as DPP-4 (unknown origin)-mediated drug degradation by measuring half life measured for 10 mins by RP-HPLC analysis; assay type: ADME
[10] = target: T2, Tyrosine-protein phosphatase non-receptor type 1; assay: Inhibition of recombinant human PTPN1 using p-nitrophenyl phosphate as substrate by spectrophotometric analysis
[11] = tested on: Mus musculus; assay: Anti-diabetic activity in male Kunming mouse assessed as reduction in area under the curve of blood glucose at 20 mg/kg, po measured for 0 to 180 mins by GTT; assay type: functional; design: scale not given: the % may be the effect or the level left; conditions: time 0-180 min
[12] = tested on: Mus musculus; assay: Anti-diabetic activity in male Kunming mouse assessed as reduction in area under the curve of blood glucose at 40 mg/kg, po measured for 0 to 180 mins by GTT; assay type: functional; design: scale not given: the % may be the effect or the level left; conditions: time 0-180 min
[13] = Toxicity in male Kunming mouse assessed as change in body weight at 0.2 microM/Kg, sc administered daily for 7 days and measured from day 2 to 7; assay type: organism-based; conditions: in vivo, 144 h, time 6 day
[14] = tested on: Mus musculus; assay: Anti-diabetic activity in male Kunming mouse assessed as reduction in area under the curve of blood glucose at 0.05 microM/Kg, sc measured for 0 to 120 mins by GTT; assay type: functional; design: scale not given: the % may be the effect or the level left; conditions: time 0-120 min, at 0.05 µmol/kg
[15] = tested on: Mus musculus; assay: Anti-diabetic activity in male Kunming mouse assessed as reduction in area under the curve of blood glucose at 0.1 microM/Kg, sc measured for 0 to 120 mins by GTT; assay type: functional; design: scale not given: the % may be the effect or the level left; conditions: time 0-120 min, at 0.1 µmol/kg
[16] = Toxicity in male Kunming mouse assessed as reduction in body weight at 0.2 microM/Kg, sc administered daily for 7 days and measured on day 1; assay type: organism-based; conditions: in vivo, 24 h, time 1 day
[17] = tested on: Mus musculus; assay: Anti-diabetic activity in male Kunming mouse assessed as reduction in area under the curve of blood glucose at 0.2 microM/Kg, sc measured for 0 to 120 mins by GTT; assay type: functional; design: scale not given: the % may be the effect or the level left; conditions: time 0-120 min, at 0.2 µmol/kg
[18] = tested on: Mus musculus; assay: Anti-diabetic activity in male Kunming mouse assessed as reduction in area under the curve of blood glucose at 10 mg/kg, po measured for 0 to 180 mins by GTT; assay type: functional; design: scale not given: the % may be the effect or the level left; conditions: time 0-180 min

Sequence of DPP-4 (dipeptidyl peptidase 4) (P27487 whole entry): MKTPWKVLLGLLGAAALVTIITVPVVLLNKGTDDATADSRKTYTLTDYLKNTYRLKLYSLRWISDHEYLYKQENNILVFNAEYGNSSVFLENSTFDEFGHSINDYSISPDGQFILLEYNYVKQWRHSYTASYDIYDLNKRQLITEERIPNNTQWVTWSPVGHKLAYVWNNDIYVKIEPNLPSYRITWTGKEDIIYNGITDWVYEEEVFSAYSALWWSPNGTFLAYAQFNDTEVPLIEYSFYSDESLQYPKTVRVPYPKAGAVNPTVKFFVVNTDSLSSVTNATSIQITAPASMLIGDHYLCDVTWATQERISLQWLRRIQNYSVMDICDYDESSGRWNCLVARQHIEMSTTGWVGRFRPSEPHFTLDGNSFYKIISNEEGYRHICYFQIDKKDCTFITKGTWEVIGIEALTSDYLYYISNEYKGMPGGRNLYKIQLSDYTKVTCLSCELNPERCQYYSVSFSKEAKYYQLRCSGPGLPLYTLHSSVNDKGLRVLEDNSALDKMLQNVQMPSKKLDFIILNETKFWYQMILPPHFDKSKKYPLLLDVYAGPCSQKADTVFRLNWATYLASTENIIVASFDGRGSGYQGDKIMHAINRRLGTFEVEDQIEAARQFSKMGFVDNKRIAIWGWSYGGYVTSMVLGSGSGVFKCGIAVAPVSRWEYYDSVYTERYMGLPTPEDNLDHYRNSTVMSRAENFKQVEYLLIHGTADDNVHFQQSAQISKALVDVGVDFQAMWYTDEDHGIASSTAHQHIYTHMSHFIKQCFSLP

Compound | K [1] | pKd [2] | half-life at 40000 µM [3] [h] | half-life at 600 µM [4] [h] | Kobs [5] | half-life at 400 µM [6] [h] | half-life [7] [h] | K [8] | half-life [9] [h] | pIC50 [10] | Activity [11] [%] | Activity [12] [%] | Activity [13] | Activity [14] [%] | Activity [15] [%] | Activity [16] | Activity [17] [%] | Activity [18] [%]
CCCCCCCCCCCCCCCC(=O)N[C@H](C(=O)N[C@@H](C)C(=O)N[C@@H](CCC(N)=O)C(=O)N[C@@H](CCC(=O)O)C(=O)N[C@@H](CC(C)C)C(=O)N[C@@H](CCCNC(=N)N)C(=O)N[C@@H](CCCNC(=N)N)C(=O)N[C@H](C(=O)NCC(=O)N[C@@H](CC(=O)O)C(=O)N[C@@H](CCC(=O)O)C(=O)N[C@@H](Cc1ccccc1)C(=O)O)[C@@H](C)CC)[C@@H](C)CC | 2.35 10^2/Ms | 5.55 | 2.7 | 0.556 | 7.3 10^-3No_unit | 2.65 | 10.6 | 6.65 10^-3/s | 3.68 |  |  |  |  |  |  |  |  | 
CCCCCCCCCCCCCCCC(=O)N[C@H](C(=O)N[C@H](CCCCN)C(=O)N[C@@H](CCC(N)=O)C(=O)N[C@@H](CCC(=O)O)C(=O)N[C@@H](CC(C)C)C(=O)N[C@@H](CCCNC(=N)N)C(=O)N[C@@H](CCCNC(=N)N)C(=O)N[C@H](C(=O)NCC(=O)N[C@@H](CC(=O)O)C(=O)N[C@@H](CCC(=O)O)C(=O)N[C@@H](Cc1ccccc1)C(=O)O)[C@@H](C)CC)[C@@H](C)CC |  |  |  |  |  |  |  |  |  | 5.67 |  |  |  |  |  |  |  | 
CCCCCCCCCCCCCCCC(=O)N[C@H](C(=O)N[C@@H](C(=O)N[C@@H](CCC(N)=O)C(=O)N[C@@H](CCC(=O)O)C(=O)N[C@@H](CC(C)C)C(=O)N[C@@H](CCCNC(=N)N)C(=O)N[C@@H](CCCNC(=N)N)C(=O)N[C@H](C(=O)NCC(=O)N[C@@H](CC(=O)O)C(=O)N[C@@H](CCC(=O)O)C(=O)N[C@@H](Cc1ccccc1)C(=O)O)[C@@H](C)CC)C(C)C)[C@@H](C)CC | 2.78 10^2/Ms | 5.68 | 1.17 | 0.163 | 6.14 10^-3No_unit | 12.3 | 70.7 | 5.85 10^-3/s | 7.12 | 6.09 |  |  |  |  |  |  |  | 
CCCCCCCCCCCCCCCC(=O)N[C@H](C(=O)N[C@@H](C)C(=O)N[C@@H](CCC(N)=O)C(=O)N[C@@H](CCC(=O)O)C(=O)N[C@@H](CC(C)C)C(=O)N[C@@H](CCCNC(=N)N)C(=O)N[C@@H](CCCNC(=N)N)C(=O)N[C@@H](C(=O)NCC(=O)N[C@@H](CC(=O)O)C(=O)N[C@@H](CCC(=O)O)C(=O)N[C@@H](Cc1ccccc1)C(=O)O)[C@@H](C)CC)[C@@H](C)CC | 1.65 10^3/Ms | 7.82 | 1.42 | 0.712 | 3.31 10^-2No_unit | 8.87 | 101 | 2.5 10^-5/s | 2.87 | 6.53 | 8 | 15.4 | Non-toxic | 7.1 | 15.6 | ~ 1 g | 26.2 | 4.6
CCCCCCCCCCCCCCCC(=O)N[C@H](C(=O)N[C@H](CCC(N)=O)C(=O)N[C@@H](CCC(N)=O)C(=O)N[C@@H](CCC(=O)O)C(=O)N[C@@H](CC(C)C)C(=O)N[C@@H](CCCNC(=N)N)C(=O)N[C@@H](CCCNC(=N)N)C(=O)N[C@H](C(=O)NCC(=O)N[C@@H](CC(=O)O)C(=O)N[C@@H](CCC(=O)O)C(=O)N[C@@H](Cc1ccccc1)C(=O)O)[C@@H](C)CC)[C@@H](C)CC |  |  |  |  |  |  |  |  |  | 5.38 |  |  |  |  |  |  |  | 

The next lines start with results.

K [1] | pKd [2] | half-life at 40000 µM [3] [h] | half-life at 600 µM [4] [h] | Kobs [5] | half-life at 400 µM [6] [h] | half-life [7] [h] | K [8] | half-life [9] [h] | pIC50 [10] | Compound | Activity [11] [%] | Activity [12] [%] | Activity [13] | Activity [14] [%] | Activity [15] [%] | Activity [16] | Activity [17] [%] | Activity [18] [%]
 |  | 1.14 | 2.9 |  | 3.79 |  |  |  | 6.06 | CCCCCCCCCCCCCCCC(=O)N[C@H](C(=O)N[C@H](Cc1cnc[nH]1)C(=O)N[C@@H](CCC(N)=O)C(=O)N[C@@H](CCC(=O)O)C(=O)N[C@@H](CC(C)C)C(=O)N[C@@H](CCCNC(=N)N)C(=O)N[C@@H](CCCNC(=N)N)C(=O)N[C@H](C(=O)NCC(=O)N[C@@H](CC(=O)O)C(=O)N[C@@H](CCC(=O)O)C(=O)N[C@@H](Cc1ccccc1)C(=O)O)[C@@H](C)CC)[C@@H](C)CC |  |  |  |  |  |  |  | 
 |  |  |  |  |  |  |  |  | 5.36 | CCCCCCCCCCCCCCCC(=O)N[C@H](C(=O)N[C@H](CO)C(=O)N[C@@H](CCC(N)=O)C(=O)N[C@@H](CCC(=O)O)C(=O)N[C@@H](CC(C)C)C(=O)N[C@@H](CCCNC(=N)N)C(=O)N[C@@H](CCCNC(=N)N)C(=O)N[C@H](C(=O)NCC(=O)N[C@@H](CC(=O)O)C(=O)N[C@@H](CCC(=O)O)C(=O)N[C@@H](Cc1ccccc1)C(=O)O)[C@@H](C)CC)[C@@H](C)CC |  |  |  |  |  |  |  | 
3.27 10^2/Ms | 6.78 | 2.42 | 1.72 | 6.69 10^-3No_unit | 15 | 102 | 1.46 10^-4/s | 3.61 | 6.40 | CCCCCCCCCCCCCCCC(=O)N[C@H](C(=O)N[C@H](C)C(=O)N[C@@H](CCC(N)=O)C(=O)N[C@@H](CCC(=O)O)C(=O)N[C@@H](CC(C)C)C(=O)N[C@@H](CCCNC(=N)N)C(=O)N[C@@H](CCCNC(=N)N)C(=O)N[C@H](C(=O)NCC(=O)N[C@@H](CC(=O)O)C(=O)N[C@@H](CCC(=O)O)C(=O)N[C@@H](Cc1ccccc1)C(=O)O)[C@@H](C)CC)[C@@H](C)CC |  |  |  |  |  |  |  | 
 |  | 1.13 | 1.86 |  | 3.21 |  |  | 1.42 | 6.07 | CCCCCCCCCCCCCCCC(=O)N[C@H](C(=O)N[C@@H](C)C(=O)N[C@H](CCC(N)=O)C(=O)N[C@@H](CCC(=O)O)C(=O)N[C@@H](CC(C)C)C(=O)N[C@@H](CCCNC(=N)N)C(=O)N[C@@H](CCCNC(=N)N)C(=O)N[C@H](C(=O)NCC(=O)N[C@@H](CC(=O)O)C(=O)N[C@@H](CCC(=O)O)C(=O)N[C@@H](Cc1ccccc1)C(=O)O)[C@@H](C)CC)[C@@H](C)CC |  |  |  |  |  |  |  | 
4.4 10^2/Ms | 6.35 | 1.78 | 0.115 | 8.87 10^-3No_unit | 8.66 | 98.6 | 7.35 10^-5/s | 13.6 | 6.34 | CCCCCCCCCCCCCCCC(=O)N[C@H](C(=O)N[C@H](Cc1ccc(O)cc1)C(=O)N[C@@H](CCC(N)=O)C(=O)N[C@@H](CCC(=O)O)C(=O)N[C@@H](CC(C)C)C(=O)N[C@@H](CCCNC(=N)N)C(=O)N[C@@H](CCCNC(=N)N)C(=O)N[C@H](C(=O)NCC(=O)N[C@@H](CC(=O)O)C(=O)N[C@@H](CCC(=O)O)C(=O)N[C@@H](Cc1ccccc1)C(=O)O)[C@@H](C)CC)[C@@H](C)CC |  |  |  |  |  |  |  | 
 |  |  |  |  |  |  |  |  | 5.78 | CCCCCCCCCCCCCCCC(=O)N[C@H](C(=O)N[C@@H](C)C(=O)N[C@@H](CCC(N)=O)C(=O)N[C@@H](CCC(=O)O)C(=O)N[C@@H](CC(C)C)C(=O)N[C@@H](CCCNC(=N)N)C(=O)N[C@H](CCCNC(=N)N)C(=O)N[C@H](C(=O)NCC(=O)N[C@@H](CC(=O)O)C(=O)N[C@@H](CCC(=O)O)C(=O)N[C@@H](Cc1ccccc1)C(=O)O)[C@@H](C)CC)[C@@H](C)CC |  |  |  |  |  |  |  | 
